Measurements as given in US12558362B2, “Use of cannabidiol in the treatment of seizures associated with rett syndrome” (JAZZ PHARMACEUTICALS RESEARCH UK LIMITED, priority 2020, dated 2026).
Entries after “also recorded” stand apart in the source; their conditions may differ.

Experiments:
[1] = tested on: mouse model of Rett syndrome; settings: cited from earlier work
[2] = tested on: patients diagnosed with Rett syndrome; test: Open label, expanded-access program of botanically derived purified CBD: seizure frequency recorded in caregiver diaries relative to baseline; assay type: in vivo, human; design: Reduction in tonic seizures over the treatment period / Reduction in focal seizures with impairment over the treatment period / Reduction in absence seizures over the treatment period: concentration or dose not given beside the values; Seizure frequency, tonic / Seizure frequency, tonic-clonic / Seizure frequency, absence / Seizure frequency, focal with impairment: unit not given here; settings: for Seizure frequency, focal with impairment: baseline 3.2
Protocol: Subjects were required to be on one or more AEDs at stable doses for a minimum of two weeks prior to baseline and to have stable vagus nerve stimulation (VNS) settings and ketogenic diet ratios for a minimum of four weeks prior to baseline.
Patients were administered botanically derived purified CBD in a 100 mg/mL sesame oil-based solution which was titrated to an initial dose of between 5 and 25 milligrams per kilogram per day (mg/kg/day) in two divided doses. Doses were then increased weekly by 5 mg/kg/day to a goal of 25 mg/kg/day where required.
A maximum dose of 50 mg/kg/day could be utilised for patients who were tolerating the medication but had not achieved seizure control; these patients had further weekly titration by 5 mg/kg/day.
There were three patients in this study, and each received CBD for various durations of time. Modifications were made to concomitant AEDs as per clinical indication.
Seizure frequency, intensity, and duration were recorded by caregivers in a diary during a baseline period of at least 28 days. Changes in seizure frequency relative to baseline were calculated after at least 2 weeks and at defined timepoints of treatment.
Patients may be defined as responders if they had more than 50% reduction in seizure frequency compared to baseline. The percent change in seizure frequency was calculated as follows: […]
The percent change of seizure frequency may be calculated for any time interval where seizure number has been recorded. For the purpose of this example the percent change of seizure frequency for the end of the treatment period was calculated as follows:
[formula] Results Patient Description

[3] = tested on: patients with Dravet and Lennox-Gastaut syndrome; settings: cited from earlier work
[4] = Patient 2, treated for 84 weeks
[5] = printed Patient 2 (follows Table 2C of Patient 3), treated for 36 weeks

## C=C(C)[C@@H]1CCC(C)=C[C@H]1c1c(O)cc(CCC)cc1O [CBDV, cannabidivarin]
[1]
  Behavioural alterations: rescue the behavioural alterations

## C=C(C)[C@@H]1CCC(C)=C[C@H]1c1c(O)cc(CCCCC)cc1O [CBD, cannabidiol]
[2]; Patient 1, 2 weeks, CBD 5.0 mg/kg/day, baseline 10.0
  Seizure frequency, tonic-clonic: 26.0
[2]; Patient 1, 2 weeks, CBD 5.0 mg/kg/day, baseline 22.4
  Seizure frequency, tonic: 22.0
[2]; Patient 1, 4 weeks, CBD 10.0 mg/kg/day, baseline 10.0
  Seizure frequency, tonic-clonic: 21.4
[2]; Patient 1, 4 weeks, CBD 10.0 mg/kg/day, baseline 22.4
  Seizure frequency, tonic: 38.0
[2]; Patient 1, 8 weeks, CBD 20.0 mg/kg/day, baseline 10.0
  Seizure frequency, tonic-clonic: 14.0
[2]; Patient 1, 8 weeks, CBD 20.0 mg/kg/day, baseline 22.4
  Seizure frequency, tonic: 28.0
[2]; Patient 1, 12 weeks, CBD 25.0 mg/kg/day, baseline 10.0
  Seizure frequency, tonic-clonic: 12.0
[2]; Patient 1, 12 weeks, CBD 25.0 mg/kg/day, baseline 22.4
  Seizure frequency, tonic: 28.0
[2]; Patient 1, 16 weeks, CBD 15.0 mg/kg/day, baseline 10.0
  Seizure frequency, tonic-clonic: 22.0
[2]; Patient 1, 16 weeks, CBD 15.0 mg/kg/day, baseline 22.4
  Seizure frequency, tonic: 14.0
[2]; Patient 1, 24 weeks, CBD 15.0 mg/kg/day, baseline 10.0
  Seizure frequency, tonic-clonic: 12.0
[2]; Patient 1, 24 weeks, CBD 15.0 mg/kg/day, baseline 22.4
  Seizure frequency, tonic: 8.0
[2]; Patient 1, 36 weeks, CBD 15.0 mg/kg/day, baseline 10.0
  Seizure frequency, tonic-clonic: 20.0
[2]; Patient 1, 36 weeks, CBD 15.0 mg/kg/day, baseline 22.4
  Seizure frequency, tonic: 20.0
[2]; Patient 1, treated for 36 weeks
  Reduction in tonic seizures over the treatment period: 10.7%
[2]; Patient 2, 8 weeks, CBD 20.0 mg/kg/day, baseline 0
  Seizure frequency, absence: 1.0
[2]; Patient 2, 8 weeks, CBD 20.0 mg/kg/day
  Seizure frequency, focal with impairment: 0
[2]; Patient 2, 8 weeks, CBD 20.0 mg/kg/day, baseline 5.6
  Seizure frequency, tonic: 3.0
[2]; Patient 2, 12 weeks, CBD 20.0 mg/kg/day, baseline 0
  Seizure frequency, absence: 0
[2]; Patient 2, 12 weeks, CBD 20.0 mg/kg/day
  Seizure frequency, focal with impairment: 0
[2]; Patient 2, 12 weeks, CBD 20.0 mg/kg/day, baseline 5.6
  Seizure frequency, tonic: 1.6
[2]; Patient 2, 16 weeks, CBD 20.0 mg/kg/day, baseline 0
  Seizure frequency, absence: 0
[2]; Patient 2, 16 weeks, CBD 20.0 mg/kg/day
  Seizure frequency, focal with impairment: 0
[2]; Patient 2, 16 weeks, CBD 20.0 mg/kg/day, baseline 5.6
  Seizure frequency, tonic: 2.0
[2]; Patient 2, 24 weeks, CBD 20.0 mg/kg/day, baseline 0
  Seizure frequency, absence: 0.8
[2]; Patient 2, 24 weeks, CBD 20.0 mg/kg/day
  Seizure frequency, focal with impairment: 0
[2]; Patient 2, 24 weeks, CBD 20.0 mg/kg/day, baseline 5.6
  Seizure frequency, tonic: 0.4
[2]; Patient 2, 36 weeks, CBD 20.0 mg/kg/day, baseline 0
  Seizure frequency, absence: 0.4
[2]; Patient 2, 36 weeks, CBD 20.0 mg/kg/day
  Seizure frequency, focal with impairment: 0
[2]; Patient 2, 36 weeks, CBD 20.0 mg/kg/day, baseline 5.6
  Seizure frequency, tonic: 0.4
[2]; Patient 2, 48 weeks, CBD 20.0 mg/kg/day, baseline 0
  Seizure frequency, absence: 0
[2]; Patient 2, 48 weeks, CBD 20.0 mg/kg/day
  Seizure frequency, focal with impairment: 0
[2]; Patient 2, 48 weeks, CBD 20.0 mg/kg/day, baseline 5.6
  Seizure frequency, tonic: 0.8
[2]; Patient 2, 60 weeks, CBD 20.0 mg/kg/day, baseline 0
  Seizure frequency, absence: 0
[2]; Patient 2, 60 weeks, CBD 20.0 mg/kg/day
  Seizure frequency, focal with impairment: 0
[2]; Patient 2, 60 weeks, CBD 20.0 mg/kg/day, baseline 5.6
  Seizure frequency, tonic: 1.4
[2]; Patient 2, 72 weeks, CBD 21.3 mg/kg/day, baseline 0
  Seizure frequency, absence: 0.4
[2]; Patient 2, 72 weeks, CBD 21.3 mg/kg/day
  Seizure frequency, focal with impairment: 0
[2]; Patient 2, 72 weeks, CBD 21.3 mg/kg/day, baseline 5.6
  Seizure frequency, tonic: 0.4
[2]; Patient 2, 84 weeks, CBD 20.0 mg/kg/day, baseline 0
  Seizure frequency, absence: 0.4
[2]; Patient 2, 84 weeks, CBD 20.0 mg/kg/day
  Seizure frequency, focal with impairment: 0
[2]; Patient 2, 84 weeks, CBD 20.0 mg/kg/day, baseline 5.6
  Seizure frequency, tonic: 0.4
[2]; [4]
  Reduction in focal seizures with impairment over the treatment period: 100%
  Reduction in tonic seizures over the treatment period: 92.9%
[2]; Patient 3, 4 weeks, CBD 25.0 mg/kg/day, baseline 4.0
  Seizure frequency, tonic-clonic: 4.0
[2]; Patient 3, 4 weeks, CBD 25.0 mg/kg/day, baseline 8.0
  Seizure frequency, absence: 1.0
[2]; Patient 3, 4 weeks, CBD 25.0 mg/kg/day, baseline 16.0
  Seizure frequency, tonic: 2.0
[2]; Patient 3, 12 weeks, CBD 25.0 mg/kg/day, baseline 4.0
  Seizure frequency, tonic-clonic: 4.0
[2]; Patient 3, 12 weeks, CBD 25.0 mg/kg/day, baseline 8.0
  Seizure frequency, absence: 0
[2]; Patient 3, 12 weeks, CBD 25.0 mg/kg/day, baseline 16.0
  Seizure frequency, tonic: 1.0
[2]; Patient 3, 16 weeks, CBD 25.0 mg/kg/day, baseline 4.0
  Seizure frequency, tonic-clonic: 6.0
[2]; Patient 3, 16 weeks, CBD 25.0 mg/kg/day, baseline 8.0
  Seizure frequency, absence: 0
[2]; Patient 3, 16 weeks, CBD 25.0 mg/kg/day, baseline 16.0
  Seizure frequency, tonic: 4.0
[2]; Patient 3, 24 weeks, CBD 25.0 mg/kg/day, baseline 4.0
  Seizure frequency, tonic-clonic: 8.0
[2]; Patient 3, 24 weeks, CBD 25.0 mg/kg/day, baseline 8.0
  Seizure frequency, absence: 4.0
[2]; Patient 3, 24 weeks, CBD 25.0 mg/kg/day, baseline 16.0
  Seizure frequency, tonic: 0
[2]; Patient 3, 36 weeks, CBD 25.0 mg/kg/day, baseline 4.0
  Seizure frequency, tonic-clonic: 6.0
[2]; Patient 3, 36 weeks, CBD 25.0 mg/kg/day, baseline 8.0
  Seizure frequency, absence: 1.0
[2]; Patient 3, 36 weeks, CBD 25.0 mg/kg/day, baseline 16.0
  Seizure frequency, tonic: 4.0
[2]; all three patients, range over patients and seizure types
  Reductions in seizures over the period of treatment, overall: 10.7-100.0%
[2]; conclusion, all patients
  Decrease of seizure frequency rates: tonic, tonic-clonic, absence and focal seizures with impairment: 11-100.0%
[2]; one patient (patient 2)
  Seizure freedom, focal seizures with impairment: became seizure free of focal seizures with impairment
[2]; [5]
  Reduction in absence seizures over the treatment period: 87.5%
  Reduction in tonic seizures over the treatment period: 75%
[2]; range over the three patients
  Reduction in tonic seizures, all three patients: 11-93%
[2]; summary statement of the program
  Reduction of seizures associated with Rett syndrome: significantly reduce the number of seizures; also recorded: significant reduction in specific seizure types
[2]; three patients with Rett syndrome
  Effect on frequency of tonic, absence and focal seizures with impairment: effective in reducing the frequency
[3]
  Efficacy in randomized control trials: showed efficacy
